Source: PMC11417994, “Cyclohexanediamine Triazole (CHDT) Functionalization Enables Labeling of Target Molecules with Al^18F/^68Ga/^111In” (Bioconjugate Chemistry, 2024)
Where “and” joins values, the source holds several entries; their conditions need not be identical. Equal values may be shown once.

Key:
PSMA [1] = target: T1, PSMA (Homo sapiens, UniProt Q04609); assay: Saturation binding (surface-bound and internalized), intact LNCaP cells as monolayer
T1 construct: Detection of endogenous PSMA expression in LNCaP and PC3 cells relative to β-actin expression by Western; host or cells: LNCaP human prostate carcinoma cells (monolayer, spheroids or Potter-Elvehjem homogenates)
T1 sequence (Q04609 whole entry): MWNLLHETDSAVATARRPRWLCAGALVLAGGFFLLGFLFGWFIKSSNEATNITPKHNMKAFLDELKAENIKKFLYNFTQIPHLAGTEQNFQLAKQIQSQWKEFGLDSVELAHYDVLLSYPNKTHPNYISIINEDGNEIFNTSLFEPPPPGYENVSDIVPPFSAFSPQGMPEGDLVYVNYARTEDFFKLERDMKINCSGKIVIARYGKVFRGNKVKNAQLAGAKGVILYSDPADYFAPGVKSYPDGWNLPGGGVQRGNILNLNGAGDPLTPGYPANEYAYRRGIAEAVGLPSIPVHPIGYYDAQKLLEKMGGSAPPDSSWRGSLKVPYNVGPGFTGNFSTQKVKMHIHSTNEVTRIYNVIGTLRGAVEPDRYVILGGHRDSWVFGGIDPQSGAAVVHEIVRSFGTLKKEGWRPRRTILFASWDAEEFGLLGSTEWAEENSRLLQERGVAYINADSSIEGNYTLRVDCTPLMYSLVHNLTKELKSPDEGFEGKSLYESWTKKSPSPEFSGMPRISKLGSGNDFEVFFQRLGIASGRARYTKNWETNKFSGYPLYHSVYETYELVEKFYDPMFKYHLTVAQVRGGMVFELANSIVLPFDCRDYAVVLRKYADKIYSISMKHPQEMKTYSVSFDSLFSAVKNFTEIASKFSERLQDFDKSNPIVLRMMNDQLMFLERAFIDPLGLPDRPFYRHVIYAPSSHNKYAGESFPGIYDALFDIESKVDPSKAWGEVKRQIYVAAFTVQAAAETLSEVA
Source text: (§1) In addition to assessing the binding affinities for nonlabeled CHDT-PSMA-1/2/3, we sought to characterize the saturation binding of the Al^18F-, ^68Ga-, and ^111In-labeled compounds using LNCaP cells cultured in monolayers and as spheroids. The saturation binding curves for Al[^18F]F-CHDT-PSMA-1/2/3 are depicted in Figure 3, while the graphs for [^18F]PSMA-1007 and ^68Ga- and ^111In-labeled CHDT-PSMA-1/2/3 can be found in Figures S7–S9 in the Supporting Information. The binding parameters (Kd and Bmax) for Al[^18F]F-CHDT-PSMA-1/2/3 and [^18F]PSMA-1007 are summarized in Table 3 (for the ^68Ga- and ^111In-labeled compounds see Tables S4 and S5 in the Supporting Information). For the saturation binding assays, we recorded surface-bound radioligand (named “binding”), which refers to bound radioligand that can be removed by acid wash, and internalized or acid-resistant radioligand (named “internalization”), which refers to radioligand that remains cell-bound after acid wash. Consequently, two saturation binding plots were obtained and two sets of binding parameters (Kd/Bmax and Kd,int/Bmax,int) were derived.
(§2) For saturation assays in well plates, monolayers of LNCaP (sowing 5 × 10^4 cells/well in 48-well plates 2 days before the assay), as well as LNCaP spheroids were incubated with radiolabeled CHDT-PSMA-1/2/3 and PSMA-1007 (0.2 nM to 100 nM) with adjacent samples receiving KuE (0.8 mM) at 37 °C for 2 h. The number of experiments can be derived from the data in the Tables S4, S5, and S7 in the Supporting Information. After removing the incubation medium and washing of cells with ice-cold PBS (containing Mg^2+ and Ca^2+) the surface-bound activity was stripped with 4 °C cold acid-wash buffer (0.2 M glycine, 0.15 M NaCl, pH 3.0) for 10 min. The acid wash buffer was transferred from the wells to measuring tubes, as was the PBS buffer after washing once. Cytosolic activity (internalized radioligand) was determined after treatment with cell lysis buffer (1% SDS in 0.1 M NaOH) at 37 °C for 30 min. Cell surface and cytosolic activity were measured separately in a gamma counter. Time-depending internalization assays were performed only with cells in monolayer. The incubation (radioligand concentration 13 nM) for these assays was terminated after 10 min, 1 and 3 h, with ^111In and ^177Lu additionally after 24 and 48 h at 37 °C, respectively. During the internalization assays adjacent samples received KuE (0.8 mM) for PSMA blocking, methyl-β-cyclodextrin (MβCD; 3 mM) or KuE together with MβCD, 1 h before radioligand application. The number of experiments can be derived from the data of Figure S11 and associated table and from Table S8 in the Supporting Information.
(§3) Dissociations constants (Kd and Kd,int), as well as maximal binding capacities (Bmax and Bmax,int), were derived from specific binding data by nonlinear regression according to the model of “One site-specific binding” as implemented in GraphPad Prism 10. Protein content was determined using the bicinchoninic acid protein assay kit (Pierce, Thermo Scientific) to calculate the binding capacities in pmol/mg and for the time-depending internalization the internalized percent of administrated dose per μg protein (% AD/μg protein).

[2] = Serum stability assay in human serum (radio-TLC/radio-HPLC); type: in vitro ADME; conditions: 37 °C, radio-TLC; for Percentage of intact radioligand after 3 h in human serum: Table 1 mean ± SEM, Table S1 individual values
Experimental: To investigate the serum stability of the radiolabeled CHDTA-PSMA-1/2/3, human serum (frozen, from male AB clotted whole blood; Sigma-Aldrich/Merck) was centrifuged for 5 min at 20,000g at 4 °C after thawing. The supernatant was sterile filtrated (filter pore 0.2 μm). Four parts serum and one part of radioligand were incubated at 37 °C with shaking. Aliquots were taken after 3 h and for the ^111In-labeled compounds also after 24 and 48 h, and residual intact radiolabeled compound was determined by radio-TLC and/or radio-HPLC. For analysis by radio-HPLC, the aliquots were mixed with Supersol (mixture for protein precipitation that consists of 20% ethanol, 0.5% Triton X-100, 5 mM EDTA and 0.1% saponin)[72] and kept on ice for 5 min. After centrifugation for 5 min at 20,000g at 4 °C, the supernatant was used for radio-HPLC analysis.

PSMA [3] = target: T1, PSMA; assay: Competition binding assay, LNCaP cell homogenates, radioligand [177Lu]Lu-PSMA-617; conditions: nonlabeled compounds; [177Lu]Lu-PSMA-617 12 nM; 37 °C, 60 min; Table 2 mean (SEM), Table S3 individual experiments and mean
Experimental: The binding affinity of the nonlabeled CHDT-PSMA-1/2/3, PSMA-1007, PSMA-617, and KuE was assessed in competition binding assays using LNCaP cell homogenates (∼1 × 10^6 cells/mL using Potter-Elvehjem) and the radioligand [^177Lu]Lu-PSMA-617 (n = 5 for CHDT-PSMA-1; n = 4 for CHDT-PSMA-2/3; n = 2 for PSMA-1007; n = 8 for PSMA-617; n = 6 for KuE). […] The assays were performed in a final volume of 200 μL. The incubation was stopped by washing the homogenate with cold PBS four times using a filter (Whatman GF/C, 90 min presoaked in 0.3% polyethylenimine) in a cell harvester (Brandel, USA). The radioactivity bound to the filter was measured in a gamma counter. Filter binding was determined for adjacent samples without cell homogenate. The experiments were performed two to four times in triplicates or quadruplicates. Inhibitory constants (Ki) were derived from nonlinear regression according to the model of “One site – Fit Ki” as implemented in GraphPad Prism 10. The Kd value of [^177Lu]Lu-PSMA-617 was determined in saturation binding assays using LNCaP cell homogenates to be 15.2 (±2.1) nM.

[4] = n-Octanol/PBS distribution coefficient (logD7.4); type: physicochemical; conditions: Table S1 individual values
Experimental: The log D7.4 values were determined as follows: 500 μL of n-octanol and 450 μL of PBS (pH 7.4) were premixed prior to the addition of 50 μL of the respective radiolabeled compound. The mixture was vigorously stirred for 30 min at 22 °C, and thereafter centrifuged for 5 min at 7,500g at 22 °C. Aliquots of the n-octanol and the aqueous phases were transferred to measuring tubes, and the activity counts in both phases were measured in a gamma counter (Hidex Deutschland Vertrieb GmbH, Germany). The logarithm of the quotient of the activity counts from the n-octanol and the aqueous phase was calculated, which is equal to the log D7.4 value.

PSMA [5] = target: T1, PSMA; assay: Saturation binding (surface-bound and internalized), LNCaP spheroids
Source text: as §1
For the formation of spheroids, the LNCaP cells were incubated overnight in a normal culture bottle with biocompatible nanoparticles ([…] with 80 μL of a suspension consisting of Au, Fe2O3 and poly-L-lysine called Nanoshuttle, Greiner Bio-One GmbH, Germany). After harvesting and cell counting, 10,000 cells/well of a 24-well plate or 7,000 cells/well of a 96-well plate (cell-repellent plates) were sown. The well plates were placed on matching plates with button magnets (Greiner Bio-One GmbH, Germany). The magnetized LNCaP cells formed suitable spheroids that were used after 5 d.
as §2, §3

[6] = same conditions; cited from earlier work
PSMA [7] = target: PSMA; parameters: method as in PMID 22369515; conditions: cited from earlier work
[8] = Al^18F-labeled conjugate or [18F]PSMA-1007, acid-resistant fraction, read-out: Kd,int (internalization)
[9] = Al^18F-labeled conjugate or [18F]PSMA-1007, surface-bound
[10] = Al^18F-labeled conjugate or [18F]PSMA-1007, surface-bound, 37 °C, 2 h, read-out: Kd (binding)
[11] = pH 7.4, radiolabel Al^18F, Table 1 mean ± SEM of three experiments
[12] = pH 7.4, radiolabel ^68Ga, Table 1 mean ± SEM
[13] = pH 7.4, radiolabel ^111In, Table 1 mean ± SEM
[14] = Al^18F-labeled conjugate or [18F]PSMA-1007, surface-bound, read-out: Kd (binding)
[15] = [111In]In-labeled conjugate, surface-bound

SMILES	Kd (PSMA [1]; [8]) [nM]	Bmax (binding) (PSMA [1]; [9]) [pmol/mg]	Kd (PSMA [1]; [10]) [nM]	Percentage of intact radioligand after 3 h in human serum ([2]; radiolabel Al^18F)	Percentage of intact radioligand after 3 h in human serum ([2]; radiolabel ^68Ga)	Percentage of intact radioligand after 3 h in human serum ([2]; radiolabel ^111In, 3 h)	Percentage of intact radioligand in human serum after 24 h (*) ([2]; radiolabel ^111In)	Percentage of intact radioligand in human serum after 48 h (**) ([2]; radiolabel ^111In)	Ki (PSMA [3])	logD [4, 11]	logD [4, 12]	logD [4, 13]	Kd (PSMA [5]; [8]) [nM]	Kd (PSMA [5]; [14]) [nM]	Bmax,int (internalization) (PSMA [5]; [111In]In-labeled conjugate)	64Cu-transchelation in human serum [6]	other results
O=C(O)CCC(NC(=O)NC(CCCCNC(=O)Cn1cc(CN(CC(=O)O)[C@@H]2CCCC[C@H]2N(CC(=O)O)CC(=O)O)nn1)C(=O)O)C(=O)O (mixture of isomers) [CHDT-PSMA-1]	18.4 ± 7.3	1.87 ± 0.57	26.4 ± 11	98.9% and 99.0% and 98.8% and 98.9 ± 0.1%	98.8% and 94.4% and 96.6 ± 2.2 %	99.7% and 99.3% and 99.4% and 99.5 ± 0.1%	99.8% and 99.5% and 99.6 ± 0.1%	99.7% and 99.3% and 98.9% and 99.3 ± 0.2%	85.5 nM and 120 nM and 86.9 nM and 152 nM and 132 nM and 115 nM	-3.6	-3.36	-4.23	37.4 ± 10.7	41.5 ± 26.4	0.03 pmol/mg and 0.06 pmol/mg and 0.04 pmol/mg		Bmax (binding) (PSMA [5]; [9]): 1.49 ± 0.36 pmol/mg
O=C(O)CCC(NC(=O)NC(CCCCNC(=O)[C@@H](Cc1cccc2ccccc12)NC(=O)CCCCCn1cc(CN(CC(=O)O)[C@@H]2CCCC[C@H]2N(CC(=O)O)CC(=O)O)nn1)C(=O)O)C(=O)O (mixture of isomers) [CHDT-PSMA-2]	14.4 ± 4.8	1.33 ± 0.10	12.9 ± 4	99.3% and 98.7% and 99.1 ± 0.2%	97.7% and 97.4% and 97.0% and 97.6 ± 0.1%	99.6% and 98.3% and 98.6% and 98.8 ± 0.4%	98.9% and 98.8% and 97.6% and 98.4 ± 0.4%	99.9% and 98.5% and 97.6% and 98.7 ± 0.7%	48.1 nM and 71.2 nM and 40.5 nM and 34.5 nM and 49 nM	-3.34	-3.11	-3.44	15.7 ± 0.8	15.8 ± 4.4	0.20 pmol/mg and 0.10 pmol/mg and 0.15 pmol/mg		Bmax,int (internalization) (PSMA [1]; [111In]In-labeled conjugate): 0.25 pmol/mg and 0.17 pmol/mg and 0.21 pmol/mg; Bmax (binding) (PSMA [5]; [9]): 1.07 ± 0.13 pmol/mg; Bmax (binding) (PSMA [5]; [15]): 0.15 pmol/mg and 0.25 pmol/mg and 0.20 pmol/mg
O=C(O)CCC(NC(=O)NC(CCCCNC(=O)[C@H](Cc1ccc2ccccc2c1)NC(=O)[C@H]1CC[C@H](CNC(=O)CCCCn2cc(CN(CC(=O)O)[C@@H]3CCCC[C@H]3N(CC(=O)O)CC(=O)O)nn2)CC1)C(=O)O)C(=O)O (mixture of isomers) [CHDT-PSMA-3]	14.4 ± 7.3	2.18 ± 0.97	19.7 ± 8.4	99.2% and 99.6% and 99.3 ± 0.1%	98.6% and 99.6% and 99.3% and 99.1 ± 0.4%	99.5% and 98.8% and 99.2% and 99.2 ± 0.2%	98.9% and 99.6% and 99.1 ± 0.2%	99.9% and 99.5% and 98.7% and 99.4 ± 0.4%	7.65 nM and 3.21 nM and 9.15 nM and 12.6 nM and 8.1 nM	-3.43	-3.09	-3.87	36.4 ± 14.6	38.6 ± 25.8	0.31 pmol/mg and 0.33 pmol/mg and 0.32 pmol/mg		Bmax,int (internalization) (PSMA [1]; [111In]In-labeled conjugate): 0.65 pmol/mg and 0.49 pmol/mg and 0.57 pmol/mg; Bmax (binding) (PSMA [1]; [15]): 0.50 pmol/mg and 0.91 pmol/mg and 0.70 pmol/mg; Bmax,int (internalization) (PSMA [5]; [68Ga]Ga-labeled conjugate, only one assay): 0.75 pmol/mg; Bmax (binding) (PSMA [5]; [15]): 0.21 pmol/mg and 0.40 pmol/mg and 0.30 pmol/mg
O=C(O)CN1CCN(CC(=O)O)CCN(CC(=O)O)CCN(CC(=O)O)CC1 [DOTA]																only minimal	
O=C(O)CN1CCN(CC(=O)O)CCN(CC(=O)O)CC1 [NOTA]																only minimal	
O=C(O)CCc1ccc(O)c(CN(CCN(CC(=O)O)Cc2cc(CCC(=O)NCCCCCC(=O)NCCCC[C@H](NC(=O)N[C@@H](CCC(=O)O)C(=O)O)C(=O)O)ccc2O)CC(=O)O)c1 [PSMA-11]																	Ki (PSMA [7]): 12 nM
O=C(O)CN1CCCN(CC(=O)O)CCN(CC(=O)O)CCCN(CC(=O)O)CC1 [TETA]																only minimal	
NC12CNCCNCC(N)(CNCCNC1)CNCCNC2 [diamSar]																only minimal	
